# Source: ChEMBL document CHEMBL2424609, “In silico accounting of novel pyridazine analogues as h-PTP 1B inhibitors: pharmacophore modelling, atom-based 3D QSAR and docking studies” (Med Chem Res, 2013)
# Biological target: T1, Tyrosine-protein phosphatase non-receptor type 1 (Homo sapiens, UniProt P18031)
# T1 sequence (P18031 whole entry): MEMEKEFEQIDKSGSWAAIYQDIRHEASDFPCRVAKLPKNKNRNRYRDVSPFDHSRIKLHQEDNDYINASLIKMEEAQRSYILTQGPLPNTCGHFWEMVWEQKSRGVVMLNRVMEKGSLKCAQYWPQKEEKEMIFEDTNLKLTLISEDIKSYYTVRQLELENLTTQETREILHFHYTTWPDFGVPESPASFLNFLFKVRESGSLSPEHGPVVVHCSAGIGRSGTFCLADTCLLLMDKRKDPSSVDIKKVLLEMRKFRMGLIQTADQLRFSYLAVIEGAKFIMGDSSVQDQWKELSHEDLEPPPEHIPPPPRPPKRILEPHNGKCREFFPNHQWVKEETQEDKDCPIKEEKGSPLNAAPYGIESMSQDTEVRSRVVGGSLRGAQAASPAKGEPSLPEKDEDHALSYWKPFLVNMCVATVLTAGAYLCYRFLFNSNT
# Experiment: Non-competitive reversible inhibition of human PTP1B
IC50 (read-out: IC50) [µM],IC50 (read-out: pIC50 (converted)) [µM],SMILES
4.5,4.5,CC1(C)C=C2C(=NN(c3cccc(F)c3)C(N)=C2C#N)CO1
2.4,2.4,CC1(C)C=C2C(=NN(c3ccccc3F)C(N)=C2C#N)CO1
4.4,4.4,N#CC1=C(N)N(c2ccccc2F)N=C2CSCC=C21
2.1,2.1,COC(=O)c1cccc(N2N=C3COC(C)(C)C=C3C(C#N)=C2N)c1
4.9,4.9,CC1(C)C=C2C(=NN(c3ccc(F)cc3)C(N)=C2C#N)CO1
1.7,1.7,CC1(C)C=C2C(=NN(c3ccc(CO)cc3)C(N)=C2C#N)CO1
1.5,1.5,CCCCc1ccccc1N1N=C2COC(C)(C)C=C2C(C#N)=C1N
8.2,8.2,CCc1cccc(N2N=C3COC(C)(C)C=C3C(C#N)=C2N)c1
10.4,10.4,N#CC1=C(N)N(c2ccccc2)N=C2CCCC=C21
3.2,3.2,CCOc1ccc(N2N=C3COC(C)(C)C=C3C(C#N)=C2N)cc1
0.35,0.35,N#CC1=C(N)N(c2ccccc2)N=C2COCC=C21

# Continued, compound first:
SMILES,IC50 (read-out: IC50) [µM],IC50 (read-out: pIC50 (converted)) [µM]
CC1(C)C=C2C(=NN(c3ccc(CCO)cc3)C(N)=C2C#N)CO1,2.9,2.9
COc1ccc(N2N=C3COC(C)(C)C=C3C(C#N)=C2N)cc1,2.2,2.2
CCc1ccccc1N1N=C2COC(C)(C)C=C2C(C#N)=C1N,1.6,1.6
CC(=O)Nc1cccc(N2N=C3COC(C)(C)C=C3C(C#N)=C2N)c1,2.3,2.3
COc1ccccc1N1N=C2COC(C)(C)C=C2C(C#N)=C1N,6.2,6.19
CC(=O)Nc1ccc(N2N=C3COC(C)(C)C=C3C(C#N)=C2N)cc1,6.1,6.1
CC(C)c1ccc(N2N=C3CSCC=C3C(C#N)=C2N)cc1,5.6,5.6
CC1(C)C=C2C(=NN(c3ccccc3Oc3ccccc3)C(N)=C2C#N)CO1,15.8,15.8
CC1(C)C=C2C(=NN(c3cccc(Oc4ccccc4)c3)C(N)=C2C#N)CO1,3.9,3.9
CC1(C)C=C2C(=NN(c3ccccc3CO)C(N)=C2C#N)CO1,11.1,11.1
COc1cccc(N2N=C3COC(C)(C)C=C3C(C#N)=C2N)c1,3.6,3.6
CC(C)c1cccc(N2N=C3COC(C)(C)C=C3C(C#N)=C2N)c1,8.2,8.2
CC1(C)C=C2C(=NN(c3ccccc3)C(N)=C2C#N)CO1,5.7,5.7
CC1(C)C=C2C(=NN(c3ccccc3C(F)(F)F)C(N)=C2C#N)CO1,3.9,3.9
CC1(C)C=C2C(=NN(c3ccccc3N3CCOCC3)C(N)=C2C#N)CO1,2.9,2.9
CCOc1ccccc1N1N=C2COC(C)(C)C=C2C(C#N)=C1N,3.4,3.4
CCc1ccc(N2N=C3COC(C)(C)C=C3C(C#N)=C2N)cc1,2.8,2.8
CC1(C)C=C2C(=NN(c3cccc(C(F)(F)F)c3)C(N)=C2C#N)CO1,2.8,2.8
N#CC1=C(N)N(c2ccc(F)cc2)N=C2CSCC=C21,2,2
CC1(C)C=C2C(=NN(c3cccc(CO)c3)C(N)=C2C#N)CO1,2.4,2.4
CC1(C)C=C2C(=NN(c3ccc(Oc4ccccc4)cc3)C(N)=C2C#N)CO1,22.7,22.7
COc1ccc(N2N=C3CSCC=C3C(C#N)=C2N)cc1,1.3,1.3
CCCCc1ccc(N2N=C3COC(C)(C)C=C3C(C#N)=C2N)cc1,7,7
CC1(C)C=C2C(=NN(c3ccccc3[N+](=O)[O-])C(N)=C2C#N)CO1,17.5,17.5
CC(C)c1ccccc1N1N=C2CSCC=C2C(C#N)=C1N,2,2
N#CC1=C(N)N(c2ccccc2)N=C2CSCC=C21,1.1,1.1
